How the values were obtained:
[1] = tested on: tumor necrosis factor (α); experiment: Cytokine Induction in Human Cells: tumor necrosis factor (α) by ELISA or IGEN Assay; format: cell-based; set-up: key to Lowest Effective Concentration Tumor Necrosis Factor: A “*” indicates that no induction was seen at any of the tested concentrations; details: human PBMC, 18 to 24 hours incubation, compounds generally tested at 30-0.014 μM; for minimal effective concentration: read-out: Lowest Effective Concentration Tumor Necrosis Factor
Excerpt: (§1) An in vitro human blood cell system is used to assess cytokine induction. Activity is based on the measurement of interferon and tumor necrosis factor (α) (IFN and TNF, respectively) secreted into culture media as described by Testerman et. al. In “Cytokine Induction by the Immunomodulators Imiquimod and S-27609”, Journal of Leukocyte Biology, 58, 365-372 (September, 1995).
(§2) Whole blood from healthy human donors is collected by venipuncture into EDTA vacutainer tubes. Peripheral blood mononuclear cells (PBMC) are separated from whole blood by density gradient centrifugation using Histopaque®-1077. Blood is diluted 1:1 with Dulbecco's Phosphate Buffered Saline (DPBS) or Hank's Balanced Salts Solution (HBSS). The PBMC layer is collected and washed twice with DPBS or HBSS and resuspended at 4×10^6 cells/mL in RPMI complete. The PBMC suspension is added to 48 well flat bottom sterile tissue culture plates (Costar, Cambridge, Mass. or Becton Dickinson Labware, Lincoln Park, N.J.) containing an equal volume of RPMI complete media containing test compound.
(§3) The compounds are solubilized in dimethyl sulfoxide (DMSO). The DMSO concentration should not exceed a final concentration of 1% for addition to the culture wells. The compounds are generally tested at concentrations ranging from 30-0.014 μM.
(§4) The solution of test compound is added at 60 μM to the first well containing RPMI complete and serial 3 fold dilutions are made in the wells. The PBMC suspension is then added to the wells in an equal volume, bringing the test compound concentrations to the desired range (30-0.014 μM). The final concentration of PBMC suspension is 2×10^6 cells/mL. The plates are covered with sterile plastic lids, mixed gently and then incubated for 18 to 24 hours at 37° C. in a 5% carbon dioxide atmosphere.
(§5) Following incubation the plates are centrifuged for 10 minutes at 1000 rpm (˜200×g) at 4° C. The cell-free culture supernatant is removed with a sterile polypropylene pipet and transferred to sterile polypropylene tubes. Samples are maintained at −30 to −70° C. until analysis. The samples are analyzed for interferon (α) by ELISA and for tumor necrosis factor (α) by ELISA or IGEN Assay
Tumor necrosis factor (α) (TNF) concentration is determined using ELISA kits available from Biosource International, Camarillo, Calif. Alternately, the TNF concentration can be determined by Origen® M-Series Immunoassay and read on an IGEN M-8 analyzer from IGEN International, Gaithersburg, Md. The immunoassay uses a human TNF capture and detection antibody pair from Biosource International, Camarillo, Calif. Results are expressed in pg/mL.
(§6) The table below lists the lowest concentration found to induce interferon and the lowest concentration found to induce tumor necrosis factor for each compound.

interferon (α) = experiment: Cytokine Induction in Human Cells: interferon (α) by ELISA; format: cell-based; set-up: key to Lowest Effective Concentration Interferon: A “*” indicates that no induction was seen at any of the tested concentrations; details: human PBMC, 18 to 24 hours incubation, compounds generally tested at 30-0.014 μM; for minimal effective concentration: read-out: Lowest Effective Concentration Interferon
Excerpt: as §1, §2, §3, §4, §5
Interferon (α) concentration is determined by ELISA using a Human Multi-Species kit from PBL Biomedical Laboratories, New Brunswick, N.J. Results are expressed in pg/mL.
as §6

| Structure (SMILES) | Lowest Effective Concentration Tumor Necrosis Factor [1] | Lowest Effective Concentration Interferon (interferon (α)) | minimal effective concentration [1] | minimal effective concentration (interferon (α)) |
| --- | --- | --- | --- | --- |
| Cc1nc(N)c2ncn(CCCCNC(=O)N[C@@H]3C[C@H]3c3ccccc3)c2c1C (relative stereo) [Example 28, N-[4-(4-amino-6,7-dimethyl-1H-imidazo[4,5-c]pyridin-1-yl)butyl]-N′-[(1R*,2S*)-2-phenylcyclopropyl]urea] | * | * | – | – |
| CCOCc1nc2c(N)nc(C)cc2n1CCCCNC(=O)N[C@@H]1C[C@H]1c1ccccc1 (relative stereo) [Example 46, N-{4-[4-amino-2-(ethoxymethyl)-6-methyl-1H-imidazo[4,5-c]pyridin-1-yl]butyl}-N′-[(1R*,2S*)-2-phenylcyclopropyl]urea] | – | – | 10 µM | 3.33 µM |
| CCOCc1nc2c(N)nc(C)c(C)c2n1CCC1CCN(C(=O)N[C@@H]2C[C@H]2c2ccccc2)CC1 (relative stereo) [Example 67, 4-{2-[4-amino-2-(ethoxymethyl)-6,7-dimethyl-1H-imidazo[4,5-c]pyridin-1-yl]ethyl}-N-[(1R*,2S*)-2-phenylcyclopropyl]piperidine-1-carboxamide] | – | – | 3.33 µM | 1.11 µM |
| CCCCc1nc2c(N)nc(C)c(C)c2n1CCCCNC(=O)c1ccccc1 [Example 1, N-[4-(4-Amino-2-butyl-6,7-dimethyl-1H-imidazo[4,5-c]pyridin-1-yl)butyl]benzamide] | – | – | 1.11 µM | 0.12 µM |
| CCCCc1nc2c(N)nc(C)c(C)c2n1CCCCNS(=O)(=O)c1ccc(F)cc1 [Example 3, N-[4-(4-Amino-2-butyl-6,7-dimethyl-1H-imidazo[4,5-c]pyridin-1-yl)butyl]-4-fluorobenzenesulfonamide Hydrate] | – | – | 0.37 µM | 0.01 µM |
| CCCCc1nc2c(N)nc(C)c(C)c2n1CCCCNC(=S)Nc1ccccc1 [Example 5, N-[4-(4-Amino-2-butyl-6,7-dimethyl-1H-imidazo[4,5-c]pyridin-1-yl)butyl]-N′-phenylthiourea Hydrate] | – | – | 0.12 µM | 0.01 µM |
| Cc1nc(N)c2ncn(CCCCNC(=O)NC(C)C)c2c1C [Example 16] | * | * | – | – |
| Cc1nc(N)c2ncn(CCCCNC(=O)NC(C)(C)C)c2c1C [Example 17] | * | – | – | 30 µM |
| CCCCNC(=O)NCCCCn1cnc2c(N)nc(C)c(C)c21 [Example 18] | * | * | – | – |
| Cc1nc(N)c2ncn(CCCCNC(=O)Nc3ccccc3)c2c1C [Example 19] | – | – | 30 µM | 10 µM |
| Cc1nc(N)c2ncn(CCCCNC(=O)NC3CCCCC3)c2c1C [Example 20] | * | – | – | 30 µM |
| Cc1nc(N)c2ncn(CCCCNC(=O)Nc3cccc(C#N)c3)c2c1C [Example 21] | * | * | – | – |
| COc1cccc(NC(=O)NCCCCn2cnc3c(N)nc(C)c(C)c32)c1 [Example 22] | * | * | – | – |
| CC(=O)c1cccc(NC(=O)NCCCCn2cnc3c(N)nc(C)c(C)c32)c1 [Example 23] | * | * | – | – |
| Cc1nc(N)c2ncn(CCCCNC(=O)Nc3ccc(N(C)C)cc3)c2c1C [Example 24] | – | – | 30 µM | 10 µM |
| CSc1cccc(NC(=O)NCCCCn2cnc3c(N)nc(C)c(C)c32)c1 [Example 25] | – | * | 3.33 µM | – |
| COc1ccc(NC(=O)NCCCCn2cnc3c(N)nc(C)c(C)c32)c(OC)c1 [Example 26] | – | – | 30 µM | 30 µM |
| Cc1nc(N)c2ncn(CCCCNC(=O)N3CCOCC3)c2c1C [Example 27, N-[4-(4-amino-6,7-dimethyl-1H-imidazo[4,5-c]pyridin-1-yl)butyl]morpholin-4-ylcarboxamide] | * | * | – | – |
| Cc1nc(N)c2ncn(CCCCNC(=O)NS(=O)(=O)c3ccccc3)c2c1C [Example 29] | * | * | – | – |
| Cc1ccc(S(=O)(=O)NC(=O)NCCCCn2cnc3c(N)nc(C)c(C)c32)cc1 [Example 30] | * | * | – | – |

| Structure (SMILES) | Lowest Effective Concentration Tumor Necrosis Factor [1] | Lowest Effective Concentration Interferon (interferon (α)) | minimal effective concentration [1] | minimal effective concentration (interferon (α)) |
| --- | --- | --- | --- | --- |
| Cc1nc(N)c2ncn(CCCCNC(=O)NS(=O)(=O)c3ccc(Cl)cc3)c2c1C [Example 31] | * | * | – | – |
| CNC(=S)NCCCCn1cnc2c(N)nc(C)c(C)c21 [Example 32] | * | * | – | – |
| Cc1nc(N)c2ncn(CCCCNC(=S)Nc3ccccc3)c2c1C [Example 33] | – | – | 3.33 µM | 3.33 µM |
| Cc1nc(N)c2ncn(CCCCNC(=S)NCCc3ccccc3)c2c1C [Example 34] | * | * | – | – |
| COc1ccc(NC(=S)NCCCCn2cnc3c(N)nc(C)c(C)c32)cc1 [Example 35] | – | – | 30 µM | 3.33 µM |
| CCOCc1nc2c(N)nc(C)cc2n1CCCCNC(=O)NC(C)C [Example 36] | – | – | 30 µM | 1.11 µM |
| CCCCNC(=O)NCCCCn1c(COCC)nc2c(N)nc(C)cc21 [Example 38] | – | – | 30 µM | 3.33 µM |
| CCOCc1nc2c(N)nc(C)cc2n1CCCCNC(=O)Nc1ccccc1 [Example 39] | – | – | 10 µM | 3.33 µM |
| CCOCc1nc2c(N)nc(C)cc2n1CCCCNC(=O)NCC(=O)OCC [Example 40] | * | – | – | 3.33 µM |
| CCOCc1nc2c(N)nc(C)cc2n1CCCCNC(=O)Nc1cccc(C#N)c1 [Example 41] | – | – | 30 µM | 10 µM |
| CCOCc1nc2c(N)nc(C)cc2n1CCCCNC(=O)Nc1cccc(C(C)=O)c1 [Example 42] | – | – | 10 µM | 10 µM |
| CCOCc1nc2c(N)nc(C)cc2n1CCCCNC(=O)Nc1ccc(N(C)C)cc1 [Example 43] | – | – | 10 µM | 0.041 µM |
| CCOCc1nc2c(N)nc(C)cc2n1CCCCNC(=O)Nc1cccc(SC)c1 [Example 44] | – | – | 10 µM | 3.33 µM |
| CCOCc1nc2c(N)nc(C)cc2n1CCCCNC(=O)Nc1ccc(OC)cc1OC [Example 45] | – | – | 10 µM | 3.33 µM |
| CCOCc1nc2c(N)nc(C)cc2n1CCCCNC(=O)NS(=O)(=O)c1ccccc1 [Example 47] | * | * | – | – |
| CCOCc1nc2c(N)nc(C)cc2n1CCCCNC(=O)NS(=O)(=O)c1ccc(C)cc1 [Example 48] | * | * | – | – |
| CCOCc1nc2c(N)nc(C)cc2n1CCCCNC(=S)NC [Example 49] | – | – | 30 µM | 3.33 µM |
| CCOCc1nc2c(N)nc(C)cc2n1CCCCNC(=S)Nc1ccccc1 [Example 50] | – | – | 3.33 µM | 0.37 µM |
| CCOCc1nc2c(N)nc(C)cc2n1CCCCNC(=S)NCCc1ccccc1 [Example 51] | – | – | 10 µM | 3.33 µM |
| CCOCc1nc2c(N)nc(C)cc2n1CCCCNC(=S)Nc1ccc(OC)cc1 [Example 52] | – | – | 3.33 µM | 0.37 µM |
